# Values of other authors, collected in publication PMC5306265 (Investigational New Drugs, 2016).
# Columns and labels:
# pERK = tested on: pERK; set-up: method as in PMID 18390968, PMID 24178622; conditions: paired tumor biopsies; cited from earlier work
# [1] = tested on: BRAF V600E/K-mutant melanoma; set-up: method as in PMID 22663011, PMID 22805292; conditions: cited from earlier work
Compound,geometric mean pERK reduction (pERK) [%],response rates [1]
Cn1cnc2c(F)c(Nc3ccc(Br)cc3Cl)c(C(=O)NOCCO)cc21 [selumetinib],79,
CC(=O)Nc1cccc(-n2c(=O)n(C3CC3)c(=O)c3c(Nc4ccc(I)cc4F)n(C)c(=O)c(C)c32)c1 [trametinib],,approximately 20%
